Data reported in publication PMC6938011, “Antiplasmodial profile of selected compounds from Malaria Box: in vitro evaluation, speed of action and drug combination studies” (Malaria Journal, 2019).
pIC50: −log10 of the molar value. “Also recorded” adds a separate entry of the source. Like-named read-outs stand apart in the source and are kept apart here.

Key:
P. berghei NK65 strain = experiment: In vivo suppressive parasite growth test against Plasmodium berghei; design: species or system Swiss outbred mice; conditions: 20 mg/kg, positive control, P. berghei-infected mice
Protocol: A suppressive parasite growth test was performed in mice infected with P. berghei NK65 strain (originally received from the New York University Medical School), as described previously, with some modifications. Briefly, adult Swiss outbred mice (20 ± 2 g weight) were intraperitoneally inoculated with 1 × 10^5 red blood cells infected with P. berghei. The infected mice were maintained together for at least 2 h and then randomized into groups of 5 animals per cage, which were subsequently administered 50 mg/kg of each compound diluted in 3% (v/v) DMSO by oral gavage daily for 3 days. Two control groups were used in parallel: one was treated with CQ (20 mg/kg) and the other was treated with the vehicle. Blood smears from mouse tails were prepared on days 5 and 7 post-infection and then fixed with methanol, stained with Giemsa 10% (v/v), and examined under the microscope.

P. falciparum = experiment: Combination assays, isobologram analysis (FIC50 pairs); type: cell-based, Plasmodium falciparum; conditions: for Isobologram data, Additive: fraction of FIC50 pairs / Isobologram data, Additive: number of FIC50 pairs / Isobologram data, Antagonistic: fraction of FIC50 pairs / Isobologram data, Antagonistic: number of FIC50 pairs / Isobologram data, Synergic: number of FIC50 pairs: combination with artesunate; for Combination profile with artesunate: isobologram, IC50 equivalent ratios 1:4, 2:3, 1:1, 3:2, 4:1
Protocol: Combinations of anti-malarial candidates with artesunate, an artemisinin derivative, were tested in fixed molar ratios based on the individual IC50 values that were previously determined by the SYBR Green I assay. Traditionally, a line (isobole) of additivity is used to distinguish between additive, synergic, and antagonistic interaction profiles. […] Thus, a systematic consideration of additivity ranges was included in the isobologram analysis, as previously described by Grabovsky and Tallarida. Concentration-response curves of individual compounds were used in the calculation of each pair’s additivity range (area within the upper and lower limits in Figs. 4 and 5). Fractional inhibitory concentration (FIC50) pairs plotted as points inside the additivity range indicate the expected sum of each compound effect, while points above and below the range indicate antagonistic and synergic interactions, respectively. The selected inhibitors were combined with artesunate in the IC50 equivalent ratios of 1:4, 2:3, 1:1, 3:2 and 4:1 for the construction of the isobolograms.

[1] = tested on: asexual intraerythrocytic stages of P. falciparum; experiment: Speed of action studies (microscopy of thin blood smears); type: cell-based, Plasmodium falciparum; conditions: ring-stage parasites; for Parasite morphology during incubation: compound at tenfold the IC50, microscopy up to 36 h; for Speed of action: compound at tenfold the IC50, observed 0-36 h
Protocol: Parasites in thin blood smears were observed by microscopy after 0, 8, 16, 24 and 36 h of incubation.

[2] = tested on: Hepatocarcinoma cells (HepG2); experiment: Cytotoxicity evaluation, neutral red assay; type: cell-based, human; conditions: HepG2, 72 h, read-out: IC50^HepG2, NR Average (confidence interval-95%)
Protocol: (§1) Hepatocarcinoma cells (HepG2) were cultivated in RPMI medium supplemented with 10% (v/v) fetal bovine serum and 0.2% (v/v) penicillin/streptomycin. The antibiotics were added to the medium to eliminate the potential interference of microbial contamination. Cells were cultivated at 37 °C and 5% CO2; the supplemented medium was changed every 2 days.
(§2) For the experimental procedures, cells were trypsinized and transferred to a 96-well plate at 30,000 cells per well and incubated at 37 °C overnight for cell adhesion. Then, serial dilutions of the inhibitor candidates were added to the plate. Cells without any compounds were used as positive growth controls. The plate was incubated at 37 °C and 5% CO2 for 72 h. After incubation, the highest compound concentration to be considered (highest concentration without precipitation) was observed by microscopy. Cytotoxicity was evaluated by two different methods. The first is a colorimetric assay based on metabolic cell activity in the presence of 3-(4,5-dimethylthiazol-2-yl)-2,5-diphenyltetrazolium bromide (MTT). Briefly, mitochondrial enzymes can convert the MTT dye into the purple insoluble compound formazan. To each well, 20 µL MTT at 5 mg/mL was added, followed by incubation at 37 °C for 3 to 5 h. After incubation, the supernatant was removed, and formazan crystals were solubilized in 100 µL DMSO. The absorbance, which is proportional to the number of viable cells, was determined using a SpectraMAX Plus 384 plate reader (Molecular Devices Corp., Sunnyvale, CA) (λ = 570 nm). The second method is based on the uptake of neutral red, a dye that is retained inside the lysosomes of viable cells. To each well, after removal of culture media, 200 µL neutral red medium 40 µg/mL was added, followed by incubation at 37 °C for 3 to 5 h. After incubation, supernatant was dispensed, and 200 µL 0.5% (v/v) formaldehyde in 1% (m/v) CaCl2 was added to remove excess of the dye for 5 min. Supernatant was dispensed, and 100 µL alcohol-acid solution (50% (v/v) ethanol, 1% (v/v) glacial acetic acid) was added, and the plate was stirred until a homogeneous solution was formed. The absorbance was determined using a SpectraMAX Plus 384 plate reader (Molecular Devices Corp., Sunnyvale, CA) (λ = 540 nm). For both methods, the half maximal inhibitory concentration (IC50^HepG2) was determined by non-linear regression analysis of the resulting concentration-response curve using the software Origin 2016 (OriginLab Corporation).

P. falciparum 3D7 strain [3] = experiment: SYBR Green I inhibition assay for the asexual stages of P. falciparum; type: cell-based, Plasmodium falciparum; conditions: 72 h, read-out: IC50^Pf Average (confidence interval-95%)
Protocol: The P. falciparum 3D7 strain was kept in culture in a humidified incubator at 37 °C in RPMI-1640 medium with 25 mM NaHCO3, 25 mM HEPES (pH 7.4), 11 mM D-glucose, 3.67 mM hypoxanthine and 25 µg/mL gentamicin, supplemented with 0.5% (m/v) AlbuMAX II. The culture medium was changed daily, and the parasitaemia was maintained below 10% with 2.5% haematocrit in human erythrocytes.
The parasites were synchronized through sterile 5% (m/v) D-sorbitol treatment over 10 min at 37 °C for the enrichment of ring-stage parasites. The cultures were pelleted by centrifugation at 600×g over 5 min. The parasitaemia was determined by microscope analysis of thin blood smears stained with Giemsa 10% (v/v) after methanol fixation. The initial parasitaemia was calculated from 1000 red blood cells (RBCs), and cultures were diluted to 0.5% parasitaemia and 2% haematocrit by adding the appropriate volumes of erythrocytes and medium. Parasite aliquots of 180 µL were distributed into 96-well plates previously prepared with 20 µL aliquots of a tenfold concentrated compound. Negative and positive control wells corresponding to non-parasitized erythrocytes and parasite cultures in the absence of compounds were set in parallel. The DMSO concentration was maintained below 0.05% (v/v). The plates were incubated for 72 h at 37 °C in a humidified incubator with a gas mixture of 90% N2, 5% O2 and 5% CO2. After incubation, the culture medium was removed, and the cells were resuspended in 100 µL PBS buffer (116 mM NaCl, 10 mM Na2HPO4, 3 mM KH2PO4) and lysed with 100 µL lysis buffer (20 mM Tris base, 5 mM EDTA, 0.0008% (v/v) Triton X-100, 0.008% (m/v) saponin, pH 8.0) containing 0.002% (v/v) SYBR Green I. Plates were incubated at room temperature for 30 min, and the fluorescence corresponding to the parasitic density was determined using a SpectraMAX Gemini EM plate reader (Molecular Devices Corp., Sunnyvale, CA) (excitation at 485 nm, emission at 535 nm). The half maximal inhibitory concentration (IC50^Pf) was determined by non-linear regression analysis of the resulting concentration-response curve using the software Origin 2016 (OriginLab Corporation).

P. falciparum 3D7 strain [4] = tested on: P. falciparum 3D7 strain; design: method as in PMID 23798988; conditions: reported potency of Malaria Box compounds ref 13, read-out: Reported IC50^Pf; cited from earlier work
[5] = tested on: Hepatocarcinoma cells (HepG2); experiment: Cytotoxicity evaluation, MTT assay; type: cell-based, human; conditions: HepG2, 72 h, read-out: IC50^HepG2, MTT Average (confidence interval-95%)
Protocol: as §1, §2

Row | SMILES | % of reduction of parasitaemia, day 5 after infection (P. berghei NK65 strain) [%] | % of reduction of parasitaemia, day 7 after infection (P. berghei NK65 strain) [%] | Isobologram data, Additive: fraction of FIC50 pairs (P. falciparum) [%] | Isobologram data, Additive: number of FIC50 pairs (P. falciparum) | Isobologram data, Antagonistic: fraction of FIC50 pairs (P. falciparum) [%] | Isobologram data, Antagonistic: number of FIC50 pairs (P. falciparum) | Isobologram data, Synergic: number of FIC50 pairs (P. falciparum) | Combination profile with artesunate (P. falciparum) | Combination profile with artesunate (P. falciparum; listed as 01) | Parasite morphology during incubation [1] | Speed of action [1] | pIC50 [2] | pIC50 (P. falciparum 3D7 strain [3]) | pIC50 (P. falciparum 3D7 strain [4]) | pIC50 [5] | Combination profile with artesunate (P. falciparum; listed as 03) | Combination profile with artesunate (P. falciparum; listed as 04) | Combination profile with artesunate (P. falciparum; listed as 05) | Combination profile with artesunate (P. falciparum; listed as 07)
1 | CCN(CC)CCCC(C)Nc1ccnc2cc(Cl)ccc12 (centres unmarked) [Chloroquine, reference compound] | 100 | 100 | – | – | – | – | – | – | – | – | – | – | – | – | – | – | – | – | –
2 | CN1CCN(c2ccc(Nc3c4ccccc4nc4ccccc34)cc2)CC1 [Compound 1] | – | – | 8 | 1 | 92 | 11 | 0 | antagonistic | Antagonism | pyknotic nuclei formation | Fast | 5.48 | 7.13 | 6.85 | 5.49 | – | – | – | –
3 | Brc1ccc(Nc2nc3ccccc3nc2Nc2ccc(Br)cc2)cc1 [Compound 3] | – | – | 38 | 5 | 62 | 8 | 0 | – | – | punctual shapes after 16 h | Fast | < 5.20 | 6.47 | 5.97 | 5.29 | Antagonism | – | – | –
4 | O=[N+]([O-])c1ccc(C=NNc2nc3ccccc3[nH]2)cc1 [Compound 4] | – | – | 8 | 1 | 92 | 12 | 0 | – | – | young trophozoites were observed after 36 h | slow-acting and Slow | < 5.20 | 6.36 | 6.85 | < 5.20 | – | Antagonism | – | –
5 | CCn1c(CN2CCN(Cc3ccccc3)CC2)nc2cc(NC(=O)c3cccs3)ccc21 [Compound 5] | – | – | 15 | 2 | 85 | 11 | 0 | – | – | punctual shapes after 16 h | fast-acting and Fast | < 4.00 | 6.60 | 6.29 | 4.05 | – | – | Antagonism | –
6 | O=C(Nc1ccc(C23CC4CC(CC(c5ccccc5)(C4)C2)C3)cc1)c1cccs1 [Compound 7] | – | – | 22 | 2 | 78 | 7 | 0 | – | – | punctual shapes after 16 h | fast-acting and Fast | < 4.60 | 6.00 | 6.08 | < 4.60 | – | – | – | Antagonism
7 | Fc1ccc2[nH]c3c(NCCCN4CCOCC4)ncnc3c2c1 [Compound 11] | – | – | – | 0 | 100 | 12 | 0 | antagonistic; also recorded: Antagonism | – | punctual shapes after 16 h | Fast | < 4.30 | 5.80 | 6.46 | < 4.30 | – | – | – | –
